# Literature values as cited in article PMC7884382, “A Phase 1 study of RO6870810, a novel bromodomain and extra-terminal protein inhibitor, in patients with NUT carcinoma, other solid tumours, or diffuse large B-cell lymphoma” (British Journal of Cancer, 2020).
# How the values were obtained:
# [1] = test system: NC; conditions: cited from earlier work
# [2] = test system: serotonin receptors; design: method as in PMID 20871596; conditions: cited from earlier work
# [3] = cited from earlier work
# [4] = test system: DLBCL; design: method as in PMID 27063978; conditions: cited from earlier work
smiles,measurement,setting,value
Cc1nnn(C)c1-c1cnc2c3ccc(C(C)(C)O)cc3n([C@H](c3ccccc3)C3CCOCC3)c2c1 [BMS-986158],Response in a patient with NC harbouring BRD3-NUT fusion,[1],minor but sustained regression
Cc1sc2c(c1C)C(c1ccc(Cl)cc1)=N[C@@H](CC(=O)OC(C)(C)C)c1nnc(C)n1-2 [JQ1],Interaction with serotonin receptors,[2],interaction with serotonin receptors
Cc1sc2c(c1C)C(c1ccc(Cl)cc1)=N[C@@H](CC(=O)Nc1ccc(O)cc1)c1nnc(C)n1-2 [birabresib],half-life,[3],4 to 5 h
same,CRs,[4]; among 22 patients with DLBCL,2
same,PR,[4]; among 22 patients with DLBCL,1
same,Responders among patients with MYC-expressing DLBCL,[4],one of five
CCNC(=O)C[C@@H]1N=C(c2ccc(Cl)cc2)c2cc(OC)ccc2-n2c(C)nnc21 [molibresib],Responses by NUT fusion among patients with NC,[1],PRs (confirmed and unconfirmed) were mostly observed in tumours with BRD3-NUT fusions
